In experiment [1] the target is human vanin-1 present in human plasma (Homo sapiens (Human), UniProt O95497). As to the kind of experiment: Vanin-1 in Human Plasma Assay. The class given is biochemical. The settings on record: 50% pooled human plasma, 50 uM substrate. On the procedure:
Vanin-1 in Human Plasma Assay.
The in vitro assay measures enzymatic cleavage of the fluorescently-labeled vanin substrate, pantetheine 7-amino-4-trifluoromethylcoumarin, by human vanin-1 present in human plasma.
Human plasma was prepared from whole blood drawn from healthy donors, collected in tubes containing sodium heparin. The plasma fractions were separated from the whole blood by centrifugation for 10 minutes at 2000×g and pooled.
The test inhibitors were solubilized in DMSO to a stock concentration of 30 mM. On the day of the assay, dose response plates were prepared by diluting the inhibitors in DMSO to a compound concentration 200-fold the final in-assay concentration. Concentration series were prepared by serially diluting in 100% DMSO in a three-fold series. […] From this intermediate compound plate, 10 μL were transferred to the assay plate and mixed with 20 uL of the pooled human plasma. The inhibitor and enzyme were co-incubated at room temperature for 30 minutes. The enzyme reaction was initiated by the addition of 10 μL of 200 uM pantetheine 7-amino-4-trifluoromethylcoumarin prepared in assay buffer. The final concentrations in the assay were 50% plasma, and 50 uM substrate. The final concentration of DMSO was 0.5%. Datapoints were measured over time using a Tecan Safire 2 platereader at 405 nm excitation wavelength and a 510 nm emission wavelength for detection.

Experiment [2] addresses human vanin-1 (Homo sapiens (Human), UniProt O95497). As to the kind of experiment: Human Vanin-1 Enzyme Assay 1. As to conditions: 25 pM human vanin-1, 50 uM pantetheine 7-amino-4-trifluoromethylcoumarin substrate. It is filed as biochemical.

human vanin-1 present in human plasma, sequence (O95497 22-491): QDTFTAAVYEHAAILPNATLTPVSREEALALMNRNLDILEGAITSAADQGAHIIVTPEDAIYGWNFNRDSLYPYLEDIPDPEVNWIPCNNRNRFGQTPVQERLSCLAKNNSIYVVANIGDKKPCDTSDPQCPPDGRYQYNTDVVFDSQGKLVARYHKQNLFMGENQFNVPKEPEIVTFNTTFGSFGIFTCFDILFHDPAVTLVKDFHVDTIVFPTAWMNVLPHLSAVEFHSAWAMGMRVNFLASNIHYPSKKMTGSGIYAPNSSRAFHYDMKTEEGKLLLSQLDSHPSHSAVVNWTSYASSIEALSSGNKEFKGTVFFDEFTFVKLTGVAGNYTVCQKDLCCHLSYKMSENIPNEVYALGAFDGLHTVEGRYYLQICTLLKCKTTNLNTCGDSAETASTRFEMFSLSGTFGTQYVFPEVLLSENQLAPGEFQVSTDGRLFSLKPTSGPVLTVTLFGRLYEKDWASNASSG
human vanin-1, sequence (O95497 22-491): as above

Take `O=C(c1cnc(NC2(c3cncnc3)CC2)nc1)N1CCCCC1` [Example 190]: the IC50 (usually the point on the concentration scale where inhibition reaches its midpoint) in experiment [1] came to 12.4 nM; in experiment [2], 12.5 nM.
Take `O=C(c1cnc(NC2(c3cncnc3)COC2)nc1)N1CCC2(CCOCC2)C1` [Example 133]: the half-maximal inhibitory concentration (IC50) in experiment [1] amounted to 0.524 nM; in experiment [2] it was 0.43 nM.
The corresponding values for `Cc1ccc(CNc2ncc(C(=O)N3CC4(CCOCC4)C3)cn2)cn1` [Example 172] are 17.4 nM and 4.53 nM.
As to `O=C(c1cnc(NC2(c3cncnc3)CC2)nc1)N1CCCC(F)(F)C1` [Example 70], the results for the half-inhibitory concentration (IC50) in experiment [1] and in experiment [2] were 205 nM and 175 nM, respectively.
In the same order, the values of `CC(C)(Nc1ncc(C(=O)N2CCC3(CCOCC3)C2)cn1)c1cnccn1` [Example 182, 8-oxa-2-azaspiro[4.5]dec-2-yl(2-{[2-(pyrazin-2-yl)propan-2-yl]amino}pyrimidin-5-yl)methanone] are 1.08 nM and 0.062 nM.
In the same order, the values of `Cc1ncc(CNc2ncc(C(=O)N3CCC4(CCOCC4)C3)cn2)cn1` [Example 170] are 16.5 nM and 6.33 nM.

Values taken from patent US10906888B2, “Pyrimidine carboxamides as inhibitors of Vanin-1 enzyme” (Pfizer Inc., priority 2016, dated 2021).
